Measurements taken from ChEMBL document CHEMBL1128439, “Evaluation of cis- and trans-9- and 11-hydroxy-5,6,6a,7,8,12b-hexahydrobenzo[a]phenanthridines as structurally rigid, selective D1 dopamine receptor ligands” (J Med Chem, 1995).
Activity calls are given as the source filed them. The rule behind the calls is not given here.

How the values were obtained:
Rattus norvegicus [1] = species on record: Rattus norvegicus; assay: Effect on cAMP synthesis in rat striatal membranes as increase above basal value at a concentration of 10 uM; NS= no synthesis detected; format: functional; settings: Striatum, Membrane
D(1A) dopamine receptor [2] = target: D(1A) dopamine receptor (Rattus norvegicus, UniProt P18901)
Chain of D(1A) dopamine receptor (Rattus norvegicus, UniProt P18901) (P18901 whole entry): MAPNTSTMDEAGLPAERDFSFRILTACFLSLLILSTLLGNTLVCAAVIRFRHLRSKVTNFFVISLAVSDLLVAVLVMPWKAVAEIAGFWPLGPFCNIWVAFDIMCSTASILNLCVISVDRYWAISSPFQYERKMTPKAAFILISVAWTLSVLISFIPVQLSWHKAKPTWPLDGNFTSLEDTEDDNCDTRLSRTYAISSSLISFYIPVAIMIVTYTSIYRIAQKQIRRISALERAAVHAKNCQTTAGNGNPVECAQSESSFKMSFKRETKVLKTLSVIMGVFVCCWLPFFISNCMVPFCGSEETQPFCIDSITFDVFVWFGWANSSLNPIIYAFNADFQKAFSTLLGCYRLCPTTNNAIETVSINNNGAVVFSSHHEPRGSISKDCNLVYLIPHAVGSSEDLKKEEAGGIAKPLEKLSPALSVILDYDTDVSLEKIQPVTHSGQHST

D(2) dopamine receptor [3] = target: D(2) dopamine receptor (Rattus norvegicus, UniProt P61169)
Chain of D(2) dopamine receptor (Rattus norvegicus, UniProt P61169) (P61169 whole entry): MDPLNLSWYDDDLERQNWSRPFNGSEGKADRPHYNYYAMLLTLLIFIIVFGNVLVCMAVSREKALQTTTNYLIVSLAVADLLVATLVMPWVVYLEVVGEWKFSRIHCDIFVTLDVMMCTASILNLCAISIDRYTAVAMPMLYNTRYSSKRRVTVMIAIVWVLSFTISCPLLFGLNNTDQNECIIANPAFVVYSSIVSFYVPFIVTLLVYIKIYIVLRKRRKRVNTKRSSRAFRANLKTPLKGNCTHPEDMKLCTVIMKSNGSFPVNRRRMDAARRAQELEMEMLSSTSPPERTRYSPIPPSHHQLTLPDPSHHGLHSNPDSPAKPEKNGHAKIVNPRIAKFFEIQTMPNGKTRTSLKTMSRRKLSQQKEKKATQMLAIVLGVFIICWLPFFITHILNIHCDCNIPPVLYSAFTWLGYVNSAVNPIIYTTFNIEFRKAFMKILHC

Rattus norvegicus [4] = species on record: Rattus norvegicus; assay: Effect on cAMP synthesis in rat striatal membranes as increase above basal value at a concentration of 10 uM; format: functional; settings: Striatum, Membrane
D(2) dopamine receptor [5] = target: D(2) dopamine receptor (Homo sapiens, UniProt P14416); assay: In vitro receptor binding affinity against Dopamine receptor D2
Chain of D(2) dopamine receptor (Homo sapiens, UniProt P14416) (P14416 whole entry): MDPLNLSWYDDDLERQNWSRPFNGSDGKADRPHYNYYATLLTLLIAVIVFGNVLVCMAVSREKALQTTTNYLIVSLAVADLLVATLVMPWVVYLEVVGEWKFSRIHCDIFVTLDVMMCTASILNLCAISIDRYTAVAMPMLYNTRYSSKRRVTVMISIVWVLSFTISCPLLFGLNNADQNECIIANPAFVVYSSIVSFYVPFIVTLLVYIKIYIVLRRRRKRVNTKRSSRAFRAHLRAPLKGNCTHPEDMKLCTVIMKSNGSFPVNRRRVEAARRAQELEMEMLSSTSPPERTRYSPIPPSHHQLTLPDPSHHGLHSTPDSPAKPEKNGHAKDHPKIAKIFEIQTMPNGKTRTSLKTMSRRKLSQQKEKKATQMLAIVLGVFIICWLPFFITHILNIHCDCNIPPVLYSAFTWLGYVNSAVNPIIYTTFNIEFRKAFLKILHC

D(1A) dopamine receptor [6] = target: D(1A) dopamine receptor (Homo sapiens, UniProt P21728); assay: Affinity towards Dopamine receptor D1
Chain of D(1A) dopamine receptor (Homo sapiens, UniProt P21728) (P21728 whole entry): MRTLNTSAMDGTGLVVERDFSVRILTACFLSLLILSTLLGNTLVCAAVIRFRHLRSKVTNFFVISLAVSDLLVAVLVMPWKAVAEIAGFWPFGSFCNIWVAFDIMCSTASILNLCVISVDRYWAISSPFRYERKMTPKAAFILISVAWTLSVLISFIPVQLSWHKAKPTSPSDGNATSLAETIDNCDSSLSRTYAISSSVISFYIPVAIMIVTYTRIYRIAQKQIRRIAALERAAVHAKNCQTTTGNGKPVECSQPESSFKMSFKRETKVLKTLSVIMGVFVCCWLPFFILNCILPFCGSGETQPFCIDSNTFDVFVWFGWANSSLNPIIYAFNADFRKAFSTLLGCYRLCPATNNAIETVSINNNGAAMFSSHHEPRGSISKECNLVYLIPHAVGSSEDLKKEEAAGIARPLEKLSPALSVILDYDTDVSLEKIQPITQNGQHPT

Rattus norvegicus [7] = species on record: Rattus norvegicus; assay: Effect on cAMP synthesis in rat striatal membranes as increase above basal value at a concentration of 10 uM in the presence of 1 uM of SCH 23390.; format: functional; settings: Striatum, Membrane

Q: For `CN1Cc2ccccc2[C@@H]2c3cc(O)c(Br)cc3CC[C@H]21`, which Increase (Rattus norvegicus [1]) is on record?
A: Its Increase is “inactive”.

Q: And the IC50 (D(1A) dopamine receptor [2])?
A: The IC50 was 322 nM.

Q: What about the IC50 (D(2) dopamine receptor [3]) of the same compound?
A: The IC50 was 3000 nM.

Q: Which Increase (Rattus norvegicus [1]) does the source give for `Oc1ccc2c(c1)[C@@H]1c3ccccc3CN[C@@H]1CC2` here?
A: The Increase was “inactive”.

Q: What about the IC50 (D(1A) dopamine receptor [2]) of the same compound?
A: The IC50 was 16700 nM.

Q: And the IC50 (D(2) dopamine receptor [3])?
A: Its IC50 is 15500 nM.

Q: Which Increase (Rattus norvegicus [4]) does the source give for `Oc1ccc2c(c1)[C@H]1c3ccccc3CN[C@@H]1CC2` here?
A: Its Increase is 15%.

Q: What about the IC50 (D(1A) dopamine receptor [2]) of the same compound?
A: The IC50 was 102 nM.

Q: And the IC50 (D(2) dopamine receptor [3])?
A: Its IC50 is 631 nM.

Q: What does the source list for `Oc1cccc2c1CC[C@H]1NCc3ccccc3[C@@H]21`?
A: Increase (Rattus norvegicus [1]): inactive; IC50 (D(1A) dopamine receptor [2]): 2900 nM; IC50 (D(2) dopamine receptor [3]): 2000 nM

Q: `NCCc1ccc(O)c(O)c1` was tested. Which Increase (Rattus norvegicus [4]) did it give?
A: Its Increase is 100%.

Q: For `CN1Cc2ccccc2[C@@H]2c3cc(O)ccc3CC[C@H]21`, which Increase (Rattus norvegicus [4]) is on record?
A: Its Increase is 8%.

Q: And the IC50 (D(1A) dopamine receptor [2])?
A: Its IC50 is 115 nM.

Q: What about the IC50 (D(2) dopamine receptor [3]) of the same compound?
A: The IC50 was 359 nM.

Q: How did the IC50 (D(1A) dopamine receptor [2]) turn out when `Oc1cccc2c1CC[C@H]1NCc3ccccc3[C@H]21` was run?
A: Its IC50 is 5550 nM.

Q: And the IC50 (D(2) dopamine receptor [3])?
A: Its IC50 is 532 nM.

Q: What does the source list for `NC1CCc2cc(O)c(O)cc2[C@H]1c1ccccc1` (some centres not stated)?
A: IC50 (D(2) dopamine receptor [5]): > 1000 nM; IC50 (D(1A) dopamine receptor [6]): > 1000 nM

Q: Which results are given for `CCCN1Cc2ccccc2[C@@H]2c3cc(O)ccc3CC[C@H]21`?
A: IC50 (D(1A) dopamine receptor [2]): 529 nM; IC50 (D(2) dopamine receptor [3]): 210 nM

Q: How did the Increase (Rattus norvegicus [1]) turn out when `CN1Cc2ccccc2[C@@H]2c3ccc(O)c(O)c3CC[C@H]21` was run?
A: Its Increase is “inactive”.

Q: What about the IC50 (D(1A) dopamine receptor [2]) of the same compound?
A: Its IC50 is 955 nM.

Q: What about the IC50 (D(2) dopamine receptor [3]) of the same compound?
A: The IC50 was 121 nM.

Q: With `Oc1cc2c(cc1O)[C@H]1c3ccccc3CN[C@@H]1CC2` as the compound, how does the Increase (Rattus norvegicus [4]) read?
A: Its Increase is 103%.

Q: What about the Increase (Rattus norvegicus [7]) of the same compound?
A: The Increase was 1%.
